US6887862B2, “Method for improving treatment selectivity and efficacy using intravascular photodynamic therapy” (Miravant Systems, Inc., priority 2001, dated 2005)
“Also recorded” adds a separate entry of the source.

Assays:
[1] = system: rat carotid artery; test: Intravascular PDT treatment of rat carotid artery, histology (H&E) and clinical observation; format: in vivo; conditions: for Adverse symptoms in animals / PDT-induced damage in surrounding tissue (histology) / Acellularity within the media (H&E): blue light approximately 458 nm; for Acellularity in the medial wall / PDT effect / damage in surrounding tissue: balloon blood exclusion
Description: The central lumen of this catheter was designed to allow passage of an optical fiber having a diffuser at its distal end. The fiber was positioned such that the diffusing section was centered within the light delivery balloon, thereby providing intravascular light delivery with minimal absorption by blood. Excitation was typically provided by a laser source at the proximal end of the device, which was focused on the proximal end of the fiber-optic diffuser. Typical wavelengths used were 405 nm, 407 nm, 413 nm, 436 nm, 442 nm, 458 nm, 514 nm, 532 nm, and the general range of 570-610 nm.
The surgery was performed by doing a cutdown to allow access to the right femoral artery, followed by insertion of the light delivery catheter. The catheter was then passed up through the iliac and abdominal aorta, through the aortic arch and into the left carotid artery. Once in place, the balloon was inflated to approximately 1 atmosphere using a standard angioplasty inflation device. This caused the balloon to expand to the diameter of the artery, while still allowing the pressure to be kept low enough to prevent significant over-stretch of the artery.
Prior to this surgery, the rats were injected with a photosensitizer drug to allow uptake of the drug into the target tissues. […] Induction of acellularity is believed to inhibit intimal hyperplasia, the most common cause of restenosis in post-angioplasty patients.
FIG. 1 is a low magnification image of a tissue cross section taken from the throat of a rat that has received PDT therapy using intravascular red light. […] (A bare fiber diffuser was used here since complete blood elimination is not necessary at this wavelength due to the relatively high penetration of light through blood at this wavelength.) The animal was sacrificed 4 days after the PDT treatment, the throat section was harvested, embedded and stained using hematoxylin and eosin (H&E). […] A balloon was placed around the fiber light diffuser here since it is important to eliminate blood at these wavelengths due to the optical absorption of hemoglobin. […] The animal was sacrificed 5 days after the PDT treatment, the throat section was harvested, embedded and stained using hematoxylin and eosin (H&E). […] In fact, it is widely believed that viable smooth muscle cells in the media and adventia are the source of the proliferating cells that are responsible for restenosis.
In FIG. 9, the results are listed in the columns titled Max. Accell., listing the acellularity measured in the section for which the acellularity was highest and Sur. Tissue Damage, listing the degree of surrounding tissue damage. […] The desired objective was to achieve significant acellularity with minimal damage to surrounding tissue.

[2] = system: coronary artery; test: Intravascular PDT treatment of swine coronary artery, heart harvested after treatment; format: in vivo
[3] = Uptake of the drug within the target tissues by fluorescence microscopy and HPLC; format: in vivo; conditions: rat, systemic administration
Method: Prior to this surgery, the rats were injected with a photosensitizer drug to allow uptake of the drug into the target tissues. Uptake of the drug within the target tissues was confirmed by fluorescence microscopy and high pressure liquid chromatography (HPLC). […] Induction of acellularity is believed to inhibit intimal hyperplasia, the most common cause of restenosis in post-angioplasty patients. […] To our knowledge, such efficacy using intravascular light has never been achieved previously with PDT. […] This was notable since the target tissues appeared to contain a higher drug concentration and they were also located closest to the light source.

[4] = Optical absorption spectrum of MV6401; format: physicochemical; conditions: near 458 nm and 532 nm (FIG. 8)
[5] = rat carotid, approximately 4 hours after drug injection (FIG. 14)
[6] = rat carotid, intravascular light at wavelengths within the disclosed 390-610 nm range
[7] = intravascular red light, high PDT doses
[8] = rat carotid, approximately 2 hours after drug injection (FIG. 15)

## CC(=O)[O-].CC(=O)[O-].CCc1c(CC)c2cc3nc(cnc4cc(OCCOCCOCCOC)c(OCCOCCOCCOC)cc4ncc4nc(cc1[n-]2)C(CCCO)=C4C)C(C)=C3CCCO.O.[Lu+3] [LuTex, lutetium texaphyrin]
[1]; [5]
  Adverse symptoms in animals: no animals displayed adverse symptoms
  PDT-induced damage in surrounding tissue (histology): minimal evidence of PDT-induced damage in surrounding tissue
[1]; rat carotid, approximately 4 hours after drug injection, 3 days after PDT (FIG. 14)
  Acellularity within the media (H&E): nearly complete acellularity within the media
[1]; [6]
  Acellularity in the medial wall: acellularity was induced in the medial wall
  PDT effect / damage in surrounding tissue: largely sparing the surrounding tissue

## C=Cc1c(C)c2[n]3c1=CC1=NC(=Cc4c(C)c5c([n]4[In]3[Cl])C(=C3N=C(C=2)[C@@H](C)[C@@H]3CCC(=O)OC)CC5=O)C(CC)=C1C [MV6401]
[1]; [6]
  Clinical evidence of adverse PDT treatment effect: no clinical evidence of an adverse PDT treatment effect
  Acellularity in the medial wall: acellularity was induced within the medial wall; also recorded: acellularity was induced in the medial wall
  PDT effect / damage in surrounding tissue: very minimal PDT effect in the surrounding tissue; also recorded: largely sparing the surrounding tissue
[1]; rat carotid, intravascular red/infrared light
  PDT treatment effect in the target tissue (histology): little or no PDT treatment effects in the target tissue
[1]; rat, 2 μmol/kg systemic, 458 nm, 100 J/cm^2, light 4 hours post drug (FIG. 3)
  Clinical symptoms: no adverse clinical symptoms
[1]; rat, 2 μmol/kg systemic, 458 nm, 100 J/cm^2, light 4 hours post drug (FIG. 4)
  Acellularity in the vessel wall: complete acellularity was induced in the vessel wall
[1]; rat, 2 μmol/kg systemic, 458 nm, 100 J/cm^2, light 4 hours post drug, balloon device, sacrificed 5 days after PDT (FIG. 3)
  Surrounding tissue damage (inflammation and necrosis, H&E): minimal PDT-induced inflammation and necrosis
[2]; blue (458 nm) or green (532 nm) intravascular light, surrounding tissue damage of the order of FIG. 6 and 7
  Acellularity within the vessel media and adventia: complete acellularity can be achieved within the vessel media and adventia
[2]; intravascular blue light (458 nm) (FIG. 6)
  PDT-induced damage to myocardium / surrounding tissue: minimal damage to the myocardium
[2]; intravascular green light (532 nm) (FIG. 7)
  PDT-induced damage to myocardium / surrounding tissue: minimal damage to the myocardium
[2]; [7]
  Acellularity in media or adventia of the vessel: insignificant acellularity was induced in the media or adventia of the vessel
  Clinical reactions: severe adverse clinical reactions
[3]
  Localization / uptake of photosensitizer in target tissue versus surrounding tissue: more strongly localized in the target tissue; also recorded: taken up preferentially in the target vessel tissue
[4]
  Absorption (molar extinction coefficient): > 1000 L cm^−1 M^−1

## O=C([O-])c1c(Cl)c(Cl)c(Cl)c(Cl)c1-c1c2cc(I)c(=O)c(I)c-2oc2c(I)c([O-])c(I)cc12.[Na+].[Na+] [Rose Bengal]
[1]; [6]
  Acellularity in the medial wall: acellularity was induced in the medial wall
  PDT effect / damage in surrounding tissue: largely sparing the surrounding tissue

## benzoporphyrin derivative [BPD]
[1]; [8]
  Adverse symptoms in animals: no animals displayed adverse symptoms
  PDT-induced damage in surrounding tissue (histology): minimal evidence of PDT-induced damage in surrounding tissue
[1]; rat carotid, approximately 2 hours after drug injection, 3 days after PDT (FIG. 15)
  Acellularity within the media (H&E): nearly complete acellularity within the media
[1]; [6]
  Acellularity in the medial wall: acellularity was induced in the medial wall
  PDT effect / damage in surrounding tissue: largely sparing the surrounding tissue
